Counter-ions that a name gives are not always drawn. Like-named read-outs stand apart in the source and are kept apart here.
Legend:
[1] = tested on: B.1.617.2 Delta Variant of SARS-CoV-2; test: microbe, parasite or virus in culture; format: cell-based; conditions: for IC50: read-out: IC 50 against B.1.617.2 Delta Variant Infection-Induced CPE
[2] = tested on: SARS-CoV-2 spike (B.1.617.2 Delta Variant) pseudotyped lentivirus; test: microbe, parasite or virus in culture; format: cell-based; conditions: for inhibition at 10 µM: HEK293, 10 μM
[3] = Severe acute respiratory syndrome coronavirus 2, Vero C1008, Vero E6
[4] = Lentivirus, read-out: Percent (%) Inhibition of Pseudo virus Entry in HEK293 Kidney Cells, B.1.617.2 Delta Variant

CCC(CC)COC(=O)[C@H](C)N[P@](=O)(OC[C@H]1O[C@@](C#N)(c2ccc3c(N)ncnn23)[C@H](O)[C@@H]1O)Oc1ccccc1 [Remdesivir]
Conc. at Max. % Inhibition [1]: 15 µM
Max. Inhibition [1]: 104.26%
IC50 [1, 3]: 8.24 µM

CCN(CC)CCCC(C)Nc1ccnc2cc(Cl)ccc12 (stereo not drawn) [Chloroquine]
Conc. at Max. % Inhibition [1]: 15 µM
IC50 [1, 3]: 8.3 µM

CCOC(=O)[C@H]1O[C@@H]1C(=O)N[C@@H](CC(C)C)C(=O)NCCC(C)C [Aloxistatin]
Conc. at Max. % Inhibition [1]: 15 µM
Max. Inhibition [1]: 85.17%
IC50 [1, 3]: 9.84 µM
IC50 ([1]; Vero E6): 9.82 µM

CN(Cc1cc(Br)cc(Br)c1N)C1CCCCC1 [BHH, Bromhexine hydrochloride]
Conc. at Max. % Inhibition [1]: 18.75 µM
Max. Inhibition [1]: 74.57%
IC50 [1, 3]: 17.7 µM
Percent (%) Inhibition of Pseudo virus Entry in HEK293 Kidney Cells, B.1.617.2 Delta Variant ([2]; 100 μM): blocked viral entry completely
inhibition at 10 µM [2, 4]: ~10%

CC(C)(C)[C@H](NC(=O)C(F)(F)F)C(=O)N1C[C@H]2[C@@H]([C@H]1C(=O)N[C@H](C#N)C[C@@H]1CCNC1=O)C2(C)C [PF-07321332]
Conc. at Max. % Inhibition [1]: 10 µM
Max. Inhibition [1]: 96.28%
IC50 ([1]; Vero E6): 1.98 µM

Nc1c(Br)cc(Br)cc1CN[C@H]1CC[C@H](O)CC1 [AMB, 4-[(2-amino-3,5-dibromophenyl)methylamino]cyclohexan-1-ol; hydrochloride]
Conc. at Max. % Inhibition [1]: 150 µM
Max. Inhibition [1]: 88.38%
IC50 [1, 3]: ~98 µM
IC50 ([1]; Vero E6, hydrochloride): 98.2 µM
Percent (%) Inhibition of Pseudo virus Entry in HEK293 Kidney Cells, B.1.617.2 Delta Variant ([2]; 50 μM, hydrochloride): 48%
Percent (%) Inhibition of Pseudo virus Entry in HEK293 Kidney Cells, B.1.617.2 Delta Variant ([2]; 100 μM, hydrochloride): 95%
inhibition at 10 µM [2, 4]: 6%
inhibition at 25 µM ([2]; Lentivirus, HEK293, 25 μM, read-out: Percent (%) Inhibition of Pseudo virus Entry in HEK293 Kidney Cells, B.1.617.2 Delta Variant): 19%
inhibition at 50 µM ([2]; Lentivirus, HEK293, 50 μM, read-out: Percent (%) Inhibition of Pseudo virus Entry in HEK293 Kidney Cells, B.1.617.2 Delta Variant): 50%
inhibition at 100 µM ([2]; Lentivirus, HEK293, 100 μM, read-out: Percent (%) Inhibition of Pseudo virus Entry in HEK293 Kidney Cells, B.1.617.2 Delta Variant): 100%

From patent US20240285552A1 (priority 2020, published 2024)
